Measurements published in patent US8901125B2, “Substituted bicyclic alkoxy pyrazole analogs as allosteric modulators of mGluR5 receptors” (Vanderbilt University, priority 2012, dated 2014).

How the values were obtained:
human mGluR5a receptor = human mGluR5a receptor (Homo sapiens, UniProt P41594); test: Cell-based functional assay (Ca2+ mobilization, FDSS), potentiation of glutamate EC20 response; conditions: H10H cell line; for Emax: maximum % effect in the concentration-response curve as percent of maximal glutamate response, glutamate EC20; for EC50: potentiation in presence of glutamate EC20, concentration in mol/L
Description: Human mGluR5a cDNA in pCMV6-XL6 mammalian expression plasmid was purchased from OriGene Technologies, Inc. (catalogue number SC326357) and subcloned into pcDNA3.1(−). Human embryonic kidney (HEK)293A cells were then transfected with human mGluR5a pcDNA3.1(−) using LipofectAmine-2000 (Invitrogen) and monoclones were selected and tested for functional response using a Ca^2+ mobilization assay. Monoclones were named for the species (“H” for human) plus the location on the plate (e.g. “10H”).
HEK cells transfected with the human mGluR5a receptor (H10H or H12H cell line) were plated at 15,000 cells/well in clear-bottomed poly-D-lysinecoated assay plates (BD Falcon) in glutamate-glutamine-free growth medium and incubated overnight at 37° C. and 5% CO2. Cell-lines used were either the H10H or H12H cell-lines expressing the human mGluR5 receptor. The following day, the growth medium was removed and the cells were washed with assay buffer containing 1× Hank's balanced salt solution (Invitrogen, Carlsbad, Calif.), 20 mM HEPES, 2.5 mM probenecid, pH 7.4 and left with 20 μL of this reagent. Following this step, the cells were loaded with calcium indicator dye, fluo-4 AM, to a final concentration of 2 μM and incubated for 40-45 min at 37° C. The dye solution was removed and replaced with assay buffer. Cell plates were held for 10-15 min at room temperature and were then loaded into the Functional Drug Screening System 6000 (FDSS 6000, Hamamatsu, Japan).
After establishment of a fluorescence baseline for about 3 seconds, the compounds of the present invention were added to the cells, and the response in cells was measured. 2.3 minutes later an EC20 concentration of the mGluR5 receptor agonist glutamate was added to the cells, and the response of the cells was measured for about 1.7 minutes. All test compounds were dissolved and diluted to a concentration of 10 mM in 100% DMSO and then serially diluted into assay buffer for a 2× stock solution in 0.6% DMSO; stock compounds were then added to the assay for a final DMSO concentration of 0.3% after the first addition to the assay well. Calcium fluorescence measures were recorded as fold over basal fluorescence; raw data was then normalized to the maximal response to glutamate. Potentiation of the agonist response of the mGluR5 receptor in the present invention was observed as an increase in response to submaximal concentrations of glutamate in the presence of compound compared to the response to glutamate in the absence of compound.
The concentration-response curves of compounds of the present invention, obtained in the presence of EC20 of mGluR5 receptor agonist glutamate to determine positive allosteric modulation, were generated using Microsoft Excel with IDBS XLFit add-ins. The raw data file containing all time points was used as the data source in the analysis template. This was saved by the FDSS as a tab-delimited text file. Data were normalized using a static ratio function (F/F0) for each measurement of the total 350 values per well divided by each well's initial value. Data was then reduced as to peak amplitudes (Max Initial Min) using a time range that starts approximately 1 second after the glutamate EC20 addition and continues for approximately 40 seconds. This is sufficient time to capture the peak amplitude of the cellular Calcium response. Individual amplitudes were expressed as % EMax by multiplying each amplitude by 100 and then dividing the product by the mean of the amplitudes derived from the glutamate ECMax-treated wells. pEC50 values for test compounds were generated by fitting the normalized values versus the log of the test compound concentration (in mol/L) using a 4 parameter logistic equation where none of the parameters were fixed. Each of the three values collected at each concentration of test compound were weighted evenly. Individual values falling outside the 95% prediction limits of the curve fit were automatically excluded from the fit. […]

Chain of human mGluR5a receptor (P41594 21-1180 isoform P41594-2 limits assumed): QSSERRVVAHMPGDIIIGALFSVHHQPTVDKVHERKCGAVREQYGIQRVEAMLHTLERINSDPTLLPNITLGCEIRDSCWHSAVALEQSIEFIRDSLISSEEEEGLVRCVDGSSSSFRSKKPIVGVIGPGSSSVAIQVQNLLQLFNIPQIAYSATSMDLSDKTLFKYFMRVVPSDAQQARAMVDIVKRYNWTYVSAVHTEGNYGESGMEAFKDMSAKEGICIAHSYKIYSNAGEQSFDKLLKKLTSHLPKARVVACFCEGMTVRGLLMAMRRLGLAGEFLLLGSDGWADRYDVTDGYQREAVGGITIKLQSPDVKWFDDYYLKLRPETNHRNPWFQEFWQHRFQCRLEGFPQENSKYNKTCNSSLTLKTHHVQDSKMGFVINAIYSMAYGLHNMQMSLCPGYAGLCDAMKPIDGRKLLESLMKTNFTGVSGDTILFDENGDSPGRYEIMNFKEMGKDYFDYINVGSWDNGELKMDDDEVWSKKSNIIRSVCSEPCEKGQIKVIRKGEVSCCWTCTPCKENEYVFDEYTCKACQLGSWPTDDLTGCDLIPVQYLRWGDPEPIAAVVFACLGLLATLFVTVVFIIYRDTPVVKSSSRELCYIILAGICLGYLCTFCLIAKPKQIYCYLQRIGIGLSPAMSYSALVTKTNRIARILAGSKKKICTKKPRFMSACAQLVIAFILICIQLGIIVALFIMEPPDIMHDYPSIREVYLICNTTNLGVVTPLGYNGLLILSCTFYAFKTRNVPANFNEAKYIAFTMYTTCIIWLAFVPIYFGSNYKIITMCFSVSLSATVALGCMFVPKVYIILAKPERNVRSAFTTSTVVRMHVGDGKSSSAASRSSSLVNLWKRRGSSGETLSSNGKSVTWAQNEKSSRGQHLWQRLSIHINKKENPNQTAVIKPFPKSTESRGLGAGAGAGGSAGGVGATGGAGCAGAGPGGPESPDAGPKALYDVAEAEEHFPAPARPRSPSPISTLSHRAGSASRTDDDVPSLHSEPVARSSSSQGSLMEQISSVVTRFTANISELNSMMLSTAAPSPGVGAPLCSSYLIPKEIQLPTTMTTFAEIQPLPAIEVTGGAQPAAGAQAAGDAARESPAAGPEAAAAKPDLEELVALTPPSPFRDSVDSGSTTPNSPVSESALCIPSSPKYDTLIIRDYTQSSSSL

melting point [°C] | Emax (human mGluR5a receptor) [%] | EC50 (human mGluR5a receptor) [nM] | Structure (SMILES)
134.8 | 53 | 174 | CC1CN(c2ccc(F)cc2)C(=O)c2cc(OCc3ccccc3)nn21 (single isomer, unassigned) [Example B10]
 | 61 | 102 | CC1CN(Cc2ccccc2)C(=O)c2cc(OCc3ccccc3)nn21 (single isomer, unassigned) [Example B62]
 | 54 | 182 | O=C1c2cc(OCc3ccccc3)nn2CCN1c1ccc(F)cc1 [Example B1, 2-(benzyloxy)-5-(4-fluorophenyl)-6,7-dihydropyrazolo[1,5-a]pyrazin-4(5H)-one]
160.6 | 57 | 661 | COc1nccc(N2CCn3nc(OCc4ccccc4)cc3C2=O)n1 [Example B2, 2-(benzyloxy)-5-(2-methoxypyrimidin-4-yl)-6,7-dihydropyrazolo[1,5-a]pyrazin-4(5H)-one]
146.2 | 59 | 112 | O=C1c2cc(OCc3ccccc3)nn2CCN1c1cccc(C2CC2)n1 [Example B3, 2-(benzyloxy)-5-(6-cyclopropylpyridin-2-yl)-6,7-dihydropyrazolo[1,5-a]pyrazin-4(5H)-one]
119 | 63 | 141 | O=C1c2cc(OCc3ccccc3F)nn2CCN1c1ccc(F)cc1 [Example B4, 2-[(2-fluorobenzyl)oxy]-5-(4-fluorophenyl)-6,7-dihydropyrazolo[1,5-a]pyrazin-4(5H)-one]
131.5 | 44 | 115 | O=C1c2cc(OCc3ccccc3)nn2CCN1c1cccc(F)c1 [Example B5]
151.9 | 44 | 229 | O=C1c2cc(OCc3ccccc3)nn2CCN1c1ccccc1F [Example B6]
209.8 | 47 | 102 | Cc1cc(N2CCn3nc(OCc4ccccc4)cc3C2=O)ccc1F [Example B7]
145.3 | 45 | 132 | COc1cc(N2CCn3nc(OCc4ccccc4)cc3C2=O)ccc1F [Example B8]
229.9 | 52 | 87.1 | C[C@@H]1Cn2nc(OCc3ccccc3)cc2C(=O)N1c1ccc(F)cc1 [Example B9]
153.5 | 25 | > 10000 | O=C1c2cc(OCc3ccccc3)nn2CCN1c1ccccn1 [Example B11]
147.8 | 17 | > 30200 | O=C1c2cc(OCc3ccccc3)nn2CCN1c1cccnc1 [Example B12]
167.2 | 37 | > 10000 | O=C1c2cc(OCc3ccccc3)nn2CCN1c1ccncc1 [Example B13]
152.1 | 53 | 174 | Cc1cccc(N2CCn3nc(OCc4ccccc4)cc3C2=O)n1 [Example B14]
145.5 | 45 | > 10000 | O=C1c2cc(OCc3ccccc3)nn2CCN1c1ccc(F)cn1 [Example B16]
145.2 | 45 | 339 | Cc1cc(N2CCn3nc(OCc4ccccc4)cc3C2=O)ncc1F [Example B18]
182.8 | 47 | 871 | Cc1nccc(N2CCn3nc(OCc4ccccc4)cc3C2=O)n1 [Example B19]
223 | 55 | 251 | COc1nc(N2CCn3nc(OCc4ccccc4)cc3C2=O)ncc1F [Example B21]
215.2 | 43 | 708 | Cc1cncc(N2CCn3nc(OCc4ccccc4)cc3C2=O)n1 [Example B22]
147.9 | 31 | 148 | N#Cc1cccc(COc2cc3n(n2)CCN(c2ccc(F)cc2)C3=O)c1 [Example B27]
140.2 | 36 | 1200 | COc1ccccc1COc1cc2n(n1)CCN(c1ccc(F)cc1)C2=O [Example B29]

melting point [°C] | Emax (human mGluR5a receptor) [%] | EC50 (human mGluR5a receptor) [nM] | Structure (SMILES)
164.6 | 28 | > 30200 | COc1ccc(COc2cc3n(n2)CCN(c2ccc(F)cc2)C3=O)cc1 [Example B30]
172.9 | 26 | > 30200 | O=C1c2cc(OCc3ccncc3)nn2CCN1c1ccc(F)cc1 [Example B31]
155.8 | 18 | > 30200 | O=C1c2cc(OCc3ccc(F)cc3)nn2CCN1c1ccc(F)cc1 [Example B32]
105.1 | 18 | > 30200 | COc1cccc(COc2cc3n(n2)CCN(c2ccc(F)cc2)C3=O)c1 [Example B33]
 | 23 | > 30200 | O=C1c2cc(OCc3ccccn3)nn2CCN1c1ccc(F)cc1 [Example B34]
 | 12 | > 30200 | O=C1c2cc(OCc3cccnc3)nn2CCN1c1ccc(F)cc1 [Example B35]
158.5 | 27 | > 30200 | Cc1cccc(COc2cc3n(n2)CCN(c2ccc(F)cc2)C3=O)n1 [Example B36]
 | 26 | ≥ 30200 | O=C1c2cc(OCc3ccccc3)nn2CCN1CC1CC1 [Example B44, 2-(benzyloxy)-5-(cyclopropylmethyl)-6,7-dihydropyrazolo[1,5-a]pyrazin-4(5H)-one]
140.2 to 140.7 | 47 | 550 | O=C1c2cc(OCc3ccccc3)nn2CCCN1c1ccc(F)cc1 [Example B49, 2-(benzyloxy)-5-(4-fluorophenyl)-5,6,7,8-tetrahydro-4H-pyrazolo[1,5-a][1,4]diazepin-4-one]
112.1 to 119.1 | 25 | > 10000 | O=C1c2cc(OCc3ccccc3)nn2CCCN1c1ccc(F)cn1 [Example B50, 2-(benzyloxy)-5-(5-fluoropyridin-2-yl)-5,6,7,8-tetrahydro-4H-pyrazolo[1,5-a][1,4]diazepin-4-one]
114.6 to 116.1 | 53 | 363 | Cc1nc(N2CCCn3nc(OCc4ccccc4)cc3C2=O)ccc1F [Example B51]
 | 37 |  | CC1(CN2CCn3nc(OCc4ccccc4)cc3C2=O)COC1 [Example B55]
 | 52 | 1070 | O=C1c2cc(OCc3ccccc3)nn2CCN1CC1CCC1 [Example B56]
 | 57 | 380 | O=C1c2cc(OCc3ccccc3)nn2CCCN1Cc1ccccc1 [Example B58, 5-benzyl-2-(benzyloxy)-5,6,7,8-tetrahydro-4H-pyrazolo[1,5-a][1,4]diazepin-4-one]
 | 59 | 257 | C[C@@H]1Cn2nc(OCc3ccccc3)cc2C(=O)N1Cc1ccccc1 [Example B61]
 | 62 | 646 | COc1cc(F)cc(CN2CCn3nc(OCc4ccccc4)cc3C2=O)c1 [Example B63]
 | 63 | 363 | COc1cccc(CN2CCn3nc(OCc4ccccc4)cc3C2=O)c1F [Example B66]
 | 63 | 115 | COc1cccc(CN2CCn3nc(OCc4ccccc4)cc3C2=O)c1Cl [Example B67]
 | 58 | 178 | COc1ccc(F)cc1CN1CCn2nc(OCc3ccccc3)cc2C1=O [Example B68]
 | 59 | 692 | O=C1c2cc(OCc3ccccc3)nn2CCN1CC1CC(F)(F)C1 [Example B71]
 | 20 | > 30200 | O=C1c2cc(OCc3ccccc3)nn2CCCN1CC1CC1(F)F (centres unmarked) [Example B73]
